{"source": "ChEMBL document CHEMBL5678804", "about": "(Cancer Cell, 2011)", "key": {"BaF3 [1]": {"tested_on": "BaF3", "test": "Antileukemic activity against mouse BaF3 cells harbouring BCR-ABL1 T315I mutant transduced with 5-FU treated bone marrow xenografted in Balb/c mouse assessed as improvement in circulating leukocyte count at 100 mg/kg, po administered once daily measured upto 56 days", "format": "functional, organism-based", "settings": "time <= 56.0 day"}, "[2]": {"molecular_target": "Fibroblast growth factor receptor 3 (Homo sapiens, UniProt P22607)", "test": "Inhibition of human wild type FGFR3 using PolyEY as substrate preincubated for 2 hrs followed by ATP addition and measured every 2 mins for […] by spectrophotometric analysis"}, "Ephrin type-B receptor 2": {"molecular_target": "Ephrin type-B receptor 2 (Homo sapiens, UniProt P29323)", "test": "Inhibition of human wild type EPHB2 using PolyEY as substrate preincubated for 2 hrs followed by ATP addition and measured every 2 mins for […] by spectrophotometric analysis"}, "[3]": {"molecular_target": "Tyrosine-protein kinase Fes/Fps (Homo sapiens, UniProt P07332)", "test": "Inhibition of human wild type FES using PolyEY as substrate preincubated for 2 hrs followed by ATP addition and measured every 2 mins for […] by spectrophotometric analysis"}, "[4]": {"molecular_target": "Vascular endothelial growth factor receptor 1 (Homo sapiens, UniProt P17948)", "test": "Inhibition of human wild type FLT1 using PolyEY as substrate preincubated for 2 hrs followed by ATP addition and measured every 2 mins for […] by spectrophotometric analysis"}, "[5]": {"molecular_target": "Mitogen-activated protein kinase 9 (Homo sapiens, UniProt P45984)", "test": "Inhibition of human wild type JNK2alpha2 using ATF2 as substrate preincubated for 2 hrs followed by ATP addition and measured every 2 mins for […] by spectrophotometric analysis"}, "[6]": {"molecular_target": "Hepatocyte growth factor receptor (Homo sapiens, UniProt P08581)", "sequence (P08581 whole entry)": "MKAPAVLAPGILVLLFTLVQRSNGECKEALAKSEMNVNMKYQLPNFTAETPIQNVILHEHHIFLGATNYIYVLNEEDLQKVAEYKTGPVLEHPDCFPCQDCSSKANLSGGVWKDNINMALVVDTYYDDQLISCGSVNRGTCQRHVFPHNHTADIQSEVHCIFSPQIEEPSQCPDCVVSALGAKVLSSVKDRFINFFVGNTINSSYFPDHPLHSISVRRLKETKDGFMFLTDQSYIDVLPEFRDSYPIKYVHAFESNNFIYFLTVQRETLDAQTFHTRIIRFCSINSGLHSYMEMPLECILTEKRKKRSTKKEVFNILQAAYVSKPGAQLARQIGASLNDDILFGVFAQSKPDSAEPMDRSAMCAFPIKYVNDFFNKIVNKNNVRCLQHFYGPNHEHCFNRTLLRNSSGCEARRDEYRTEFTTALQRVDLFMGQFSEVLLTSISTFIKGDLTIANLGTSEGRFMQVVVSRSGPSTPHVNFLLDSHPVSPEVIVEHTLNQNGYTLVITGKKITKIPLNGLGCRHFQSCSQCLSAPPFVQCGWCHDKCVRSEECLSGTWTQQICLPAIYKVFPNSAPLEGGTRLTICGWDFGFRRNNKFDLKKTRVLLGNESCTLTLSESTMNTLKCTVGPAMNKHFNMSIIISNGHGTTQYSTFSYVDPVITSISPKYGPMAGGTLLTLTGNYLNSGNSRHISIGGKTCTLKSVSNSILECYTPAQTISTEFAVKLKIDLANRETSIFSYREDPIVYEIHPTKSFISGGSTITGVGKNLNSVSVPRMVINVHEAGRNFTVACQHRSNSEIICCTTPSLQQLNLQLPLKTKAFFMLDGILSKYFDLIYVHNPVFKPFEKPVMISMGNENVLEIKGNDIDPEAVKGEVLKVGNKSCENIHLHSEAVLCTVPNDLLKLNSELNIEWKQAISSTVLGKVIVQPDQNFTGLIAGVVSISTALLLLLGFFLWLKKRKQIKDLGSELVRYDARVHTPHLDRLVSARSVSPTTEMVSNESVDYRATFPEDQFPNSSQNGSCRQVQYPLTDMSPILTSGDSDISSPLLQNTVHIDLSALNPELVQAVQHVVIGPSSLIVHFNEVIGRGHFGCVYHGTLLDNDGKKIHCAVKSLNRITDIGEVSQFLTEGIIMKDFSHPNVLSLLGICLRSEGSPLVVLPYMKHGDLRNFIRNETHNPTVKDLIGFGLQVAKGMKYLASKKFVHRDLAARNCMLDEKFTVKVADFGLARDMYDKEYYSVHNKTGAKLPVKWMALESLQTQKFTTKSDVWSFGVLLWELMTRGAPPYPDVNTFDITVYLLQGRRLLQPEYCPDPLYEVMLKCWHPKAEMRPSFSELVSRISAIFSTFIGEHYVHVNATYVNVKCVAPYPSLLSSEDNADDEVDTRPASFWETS", "test": "Inhibition of human wild type MET using Poly(Ala,Glu,Lys,Tyr)6:2:5:1 as substrate preincubated for 2 hrs followed by ATP addition and measured every 2 mins for […] by spectrophotometric analysis"}, "[7]": {"molecular_target": "Serine/threonine-protein kinase ULK2 (Homo sapiens, UniProt Q8IYT8)", "sequence (Q8IYT8 whole entry)": "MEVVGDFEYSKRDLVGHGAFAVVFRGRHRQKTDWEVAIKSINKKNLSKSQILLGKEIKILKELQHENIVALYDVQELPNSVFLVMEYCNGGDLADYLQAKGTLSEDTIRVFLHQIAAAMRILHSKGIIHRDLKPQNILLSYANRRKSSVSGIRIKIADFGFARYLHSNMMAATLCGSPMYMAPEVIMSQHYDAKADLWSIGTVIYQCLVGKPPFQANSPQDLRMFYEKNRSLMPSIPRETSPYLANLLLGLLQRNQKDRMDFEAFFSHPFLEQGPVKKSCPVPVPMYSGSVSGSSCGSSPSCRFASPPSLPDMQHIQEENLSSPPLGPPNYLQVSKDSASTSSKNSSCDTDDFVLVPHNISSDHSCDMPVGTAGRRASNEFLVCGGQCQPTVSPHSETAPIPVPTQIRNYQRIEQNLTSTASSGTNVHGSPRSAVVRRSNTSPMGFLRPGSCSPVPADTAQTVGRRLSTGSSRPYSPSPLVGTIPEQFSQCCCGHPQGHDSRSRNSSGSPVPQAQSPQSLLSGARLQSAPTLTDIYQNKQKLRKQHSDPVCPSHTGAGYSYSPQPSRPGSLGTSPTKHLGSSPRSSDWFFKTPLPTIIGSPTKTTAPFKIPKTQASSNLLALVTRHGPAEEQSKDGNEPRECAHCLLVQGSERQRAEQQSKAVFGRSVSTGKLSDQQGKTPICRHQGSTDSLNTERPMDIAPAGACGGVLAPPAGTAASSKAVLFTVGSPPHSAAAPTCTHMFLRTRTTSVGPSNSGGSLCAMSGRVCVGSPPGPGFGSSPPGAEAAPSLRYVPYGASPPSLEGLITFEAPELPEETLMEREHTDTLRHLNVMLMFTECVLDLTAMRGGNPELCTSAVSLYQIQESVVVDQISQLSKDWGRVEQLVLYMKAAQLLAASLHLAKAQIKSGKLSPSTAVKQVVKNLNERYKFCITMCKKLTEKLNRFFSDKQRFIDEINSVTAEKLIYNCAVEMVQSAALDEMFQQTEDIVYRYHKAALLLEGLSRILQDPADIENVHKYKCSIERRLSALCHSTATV", "test": "Inhibition of human wild type ULK2 using Casein as substrate preincubated for 2 hrs followed by ATP addition and measured every 2 mins for […] by spectrophotometric analysis"}, "[8]": {"molecular_target": "Activin receptor type-1-like (Homo sapiens, UniProt P37023)", "test": "Inhibition of human wild type ALK1 using Casein as substrate preincubated for 2 hrs followed by ATP addition and measured every 2 mins for […] by spectrophotometric analysis"}, "[9]": {"molecular_target": "Serine/threonine-protein kinase BRSK1 (Homo sapiens, UniProt Q8TDC3)", "test": "Inhibition of human wild type BRSK1 using RBER-CHKtide as substrate preincubated for 2 hrs followed by ATP addition and measured every 2 mins for […] by spectrophotometric analysis"}, "[10]": {"molecular_target": "Casein kinase I isoform alpha (Homo sapiens, UniProt P48729)", "test": "Inhibition of human wild type CK1 alpha using Casein as substrate preincubated for 2 hrs followed by ATP addition and measured every 2 mins for […] by spectrophotometric analysis"}, "[11]": {"molecular_target": "Receptor tyrosine-protein kinase erbB-4 (Homo sapiens, UniProt Q15303)", "test": "Inhibition of human wild type HER4 using PolyEY as substrate preincubated for 2 hrs followed by ATP addition and measured every 2 mins for […] by spectrophotometric analysis"}, "Insulin receptor": {"molecular_target": "Insulin receptor (Homo sapiens, UniProt P06213)", "test": "Inhibition of human wild type IR using Poly(Ala,Glu,Lys,Tyr)6:2:5:1 as substrate preincubated for 2 hrs followed by ATP addition and measured every 2 mins for […] by spectrophotometric analysis"}, "[12]": {"molecular_target": "Tyrosine-protein kinase JAK2 (Homo sapiens, UniProt O60674)", "test": "Inhibition of human wild type JAK2 using Poly(Ala,Glu,Lys,Tyr)6:2:5:1 as substrate preincubated for 2 hrs followed by ATP addition and measured every 2 mins for […] by spectrophotometric analysis"}, "[13]": {"molecular_target": "MAP kinase-activated protein kinase 2 (Homo sapiens, UniProt P49137)", "test": "Inhibition of human MK2 preincubated for 2 hrs followed by ATP addition and measured every 2 mins for […] by spectrophotometric analysis"}, "[14]": {"molecular_target": "Dual specificity mitogen-activated protein kinase kinase 6 (Homo sapiens, UniProt P52564)", "sequence (P52564 whole entry)": "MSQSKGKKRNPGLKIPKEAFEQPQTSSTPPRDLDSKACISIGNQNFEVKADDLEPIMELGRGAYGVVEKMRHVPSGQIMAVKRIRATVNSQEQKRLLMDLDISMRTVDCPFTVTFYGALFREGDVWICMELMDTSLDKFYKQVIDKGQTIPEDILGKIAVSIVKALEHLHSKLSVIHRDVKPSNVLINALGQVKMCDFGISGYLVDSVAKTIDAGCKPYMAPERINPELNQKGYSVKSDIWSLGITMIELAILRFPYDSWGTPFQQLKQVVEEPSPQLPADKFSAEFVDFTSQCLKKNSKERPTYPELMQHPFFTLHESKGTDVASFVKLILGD", "test": "Inhibition of human wild type MKK6 using p38-alpha KA as substrate preincubated for 2 hrs followed by ATP addition and measured every 2 mins for […] by spectrophotometric analysis"}, "[15]": {"molecular_target": "MAP kinase-interacting serine/threonine-protein kinase 1 (Homo sapiens, UniProt Q9BUB5)", "sequence (Q9BUB5 whole entry)": "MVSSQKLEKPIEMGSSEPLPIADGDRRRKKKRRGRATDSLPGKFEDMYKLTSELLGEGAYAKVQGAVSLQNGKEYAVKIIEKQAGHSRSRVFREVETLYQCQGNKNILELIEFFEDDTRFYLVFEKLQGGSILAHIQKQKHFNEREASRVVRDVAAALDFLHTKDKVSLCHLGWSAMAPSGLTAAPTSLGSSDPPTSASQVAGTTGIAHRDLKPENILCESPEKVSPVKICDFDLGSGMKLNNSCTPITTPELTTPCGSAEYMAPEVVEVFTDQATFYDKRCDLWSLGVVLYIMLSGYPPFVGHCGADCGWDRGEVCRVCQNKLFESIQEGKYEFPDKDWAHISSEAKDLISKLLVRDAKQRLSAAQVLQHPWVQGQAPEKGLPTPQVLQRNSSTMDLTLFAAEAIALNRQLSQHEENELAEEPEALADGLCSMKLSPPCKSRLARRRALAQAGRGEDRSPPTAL", "test": "Inhibition of human wild type MNK1 using RB-S6P as substrate preincubated for 2 hrs followed by ATP addition and measured every 2 mins for […] by spectrophotometric analysis"}, "[16]": {"molecular_target": "Serine/threonine-protein kinase Nek1 (Homo sapiens, UniProt Q96PY6)", "test": "Inhibition of human wild type NEK1 using RBER-CHKtide as substrate preincubated for 2 hrs followed by ATP addition and measured every 2 mins for […] by spectrophotometric analysis"}, "[17]": {"molecular_target": "Mitogen-activated protein kinase kinase kinase 14 (Homo sapiens, UniProt Q99558)", "test": "Inhibition of human wild type NIK using RBER-CHKtide as substrate preincubated for 2 hrs followed by ATP addition and measured every 2 mins for […] by spectrophotometric analysis"}, "[18]": {"molecular_target": "Mitogen-activated protein kinase 12 (Homo sapiens, UniProt P53778)", "test": "Inhibition of human wild type p38 gamma using RBER-IRStide as substrate preincubated for 2 hrs followed by ATP addition and measured every 2 mins for […] by spectrophotometric analysis"}, "[19]": {"molecular_target": "PAS domain-containing serine/threonine-protein kinase (Homo sapiens, UniProt Q96RG2)", "test": "Inhibition of human wild type PASK using RBER-CHKtide as substrate preincubated for 2 hrs followed by ATP addition and measured every 2 mins for […] by spectrophotometric analysis"}, "[20]": {"molecular_target": "Serine/threonine-protein kinase pim-2 (Homo sapiens, UniProt Q9P1W9)", "test": "Inhibition of human wild type PIM2 using RBER-GSK3(14to 27) as substrate preincubated for 2 hrs followed by ATP addition and measured every 2 mins for […] by spectrophotometric analysis"}, "[21]": {"molecular_target": "Ribosomal protein S6 kinase alpha-6 (Homo sapiens, UniProt Q9UK32)", "sequence (Q9UK32 whole entry)": "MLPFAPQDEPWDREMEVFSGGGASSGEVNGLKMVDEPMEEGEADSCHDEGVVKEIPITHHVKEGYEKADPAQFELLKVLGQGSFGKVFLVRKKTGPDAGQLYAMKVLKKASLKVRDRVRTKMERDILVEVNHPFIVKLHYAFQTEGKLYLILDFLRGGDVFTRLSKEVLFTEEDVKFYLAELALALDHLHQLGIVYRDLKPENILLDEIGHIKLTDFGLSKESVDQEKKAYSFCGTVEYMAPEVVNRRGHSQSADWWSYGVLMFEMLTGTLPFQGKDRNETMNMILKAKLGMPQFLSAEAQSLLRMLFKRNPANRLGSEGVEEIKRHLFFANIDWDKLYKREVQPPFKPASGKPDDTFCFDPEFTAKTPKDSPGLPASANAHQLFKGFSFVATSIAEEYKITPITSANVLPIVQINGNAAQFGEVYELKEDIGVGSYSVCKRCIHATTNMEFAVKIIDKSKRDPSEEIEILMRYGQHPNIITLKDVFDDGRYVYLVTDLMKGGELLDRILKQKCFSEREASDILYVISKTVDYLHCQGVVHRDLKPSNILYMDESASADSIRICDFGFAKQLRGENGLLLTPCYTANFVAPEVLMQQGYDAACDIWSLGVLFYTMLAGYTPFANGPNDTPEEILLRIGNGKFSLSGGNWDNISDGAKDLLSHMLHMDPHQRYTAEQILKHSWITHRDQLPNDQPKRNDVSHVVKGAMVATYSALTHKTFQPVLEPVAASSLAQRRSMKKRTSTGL", "test": "Inhibition of human wild type RSK4 using RBER-GSK3([…] to […]) as substrate preincubated for 2 hrs followed by ATP addition and measured every 2 mins for […] by spectrophotometric analysis"}, "[22]": {"molecular_target": "Non-receptor tyrosine-protein kinase TYK2 (Homo sapiens, UniProt P29597)", "test": "Inhibition of human wild type TYK2 using Poly(Ala,Glu,Lys,Tyr)6:2:5:1 as substrate preincubated for 2 hrs followed by ATP addition and measured every 2 mins for […] by spectrophotometric analysis"}, "[23]": {"molecular_target": "Serine/threonine-protein kinase WNK2 (Homo sapiens, UniProt Q9Y3S1)", "test": "Inhibition of human wild type WNK2 using RBER-CHKtide as substrate preincubated for 2 hrs followed by ATP addition and measured every 2 mins for […] by spectrophotometric analysis"}, "BaF3 [24]": {"tested_on": "BaF3", "test": "Antitumor activity against mouse BaF3 cells harbouring BCR-ABL1 T315I mutant xenografted in Balb/c mouse model assessed as prolongation of animal survival at 100 mg/kg, po administered once daily for 21 days", "format": "functional, organism-based", "settings": "time 21.0 day"}, "[25]": {"molecular_target": "Tyrosine-protein kinase ABL1 (Homo sapiens, UniProt P00519)", "sequence (P00519 whole entry)": "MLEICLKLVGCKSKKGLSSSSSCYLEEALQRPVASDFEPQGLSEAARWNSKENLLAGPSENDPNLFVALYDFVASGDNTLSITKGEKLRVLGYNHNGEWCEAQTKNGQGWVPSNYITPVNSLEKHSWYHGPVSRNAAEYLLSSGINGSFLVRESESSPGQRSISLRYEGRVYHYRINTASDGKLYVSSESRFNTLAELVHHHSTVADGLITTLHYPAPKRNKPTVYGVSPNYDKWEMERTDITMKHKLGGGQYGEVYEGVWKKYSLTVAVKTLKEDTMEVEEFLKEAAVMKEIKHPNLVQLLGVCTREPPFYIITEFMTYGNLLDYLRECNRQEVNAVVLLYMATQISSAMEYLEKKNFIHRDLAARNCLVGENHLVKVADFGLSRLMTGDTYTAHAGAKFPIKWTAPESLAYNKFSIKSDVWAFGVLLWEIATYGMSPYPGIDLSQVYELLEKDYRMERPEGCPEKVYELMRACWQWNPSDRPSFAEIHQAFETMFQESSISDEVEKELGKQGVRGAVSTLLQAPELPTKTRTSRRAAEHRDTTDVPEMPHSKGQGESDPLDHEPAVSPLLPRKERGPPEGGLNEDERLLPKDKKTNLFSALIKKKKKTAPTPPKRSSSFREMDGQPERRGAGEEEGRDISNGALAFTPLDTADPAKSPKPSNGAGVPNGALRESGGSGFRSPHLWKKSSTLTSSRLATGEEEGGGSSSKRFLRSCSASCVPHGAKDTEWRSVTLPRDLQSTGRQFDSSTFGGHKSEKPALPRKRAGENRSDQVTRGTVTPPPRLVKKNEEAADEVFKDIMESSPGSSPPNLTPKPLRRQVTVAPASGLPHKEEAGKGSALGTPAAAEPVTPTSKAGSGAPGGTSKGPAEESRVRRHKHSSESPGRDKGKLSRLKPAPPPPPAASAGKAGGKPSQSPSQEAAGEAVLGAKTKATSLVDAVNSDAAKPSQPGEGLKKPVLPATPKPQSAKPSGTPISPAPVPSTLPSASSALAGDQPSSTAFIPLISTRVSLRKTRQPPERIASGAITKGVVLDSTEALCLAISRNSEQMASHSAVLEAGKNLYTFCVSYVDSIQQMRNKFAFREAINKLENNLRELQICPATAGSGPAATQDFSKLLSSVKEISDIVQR", "settings": "Sf9, time 2.0 hrs"}}, "note": "The source made the active and inactive calls. The calls are words filed in the database; no cut-off is given here."}
{"smiles": "CNC(=O)c1cc(Oc2ccc(NC(=O)Nc3cc(C(C)(C)C)nn3-c3ccc4ncccc4c3)c(F)c2)ccn1", "note": "[REBASTINIB]", "values": [{"measurement": "Activity", "setting": "BaF3 [1]", "value": "Active"}, {"measurement": "IC50", "setting": "[2]", "value": 10, "unit": "nM"}, {"measurement": "IC50", "setting": "Ephrin type-B receptor 2", "value": 310, "unit": "nM"}, {"measurement": "IC50", "setting": "[3]", "value": 160, "unit": "nM"}, {"measurement": "IC50", "setting": "[4]", "value": 320, "unit": "nM"}, {"measurement": "IC50", "setting": "[5]", "value": 240, "unit": "nM"}, {"measurement": "IC50", "setting": "[6]", "value": 250, "unit": "nM"}, {"measurement": "IC50", "setting": "[7]", "value": 320, "unit": "nM"}, {"measurement": "IC50", "setting": "[8]", "value": "> 1000", "unit": "nM"}, {"measurement": "IC50", "setting": "[9]", "value": "> 1000", "unit": "nM"}, {"measurement": "IC50", "setting": "[10]", "value": "> 1000", "unit": "nM"}, {"measurement": "IC50", "setting": "[11]", "value": "> 1000", "unit": "nM"}, {"measurement": "IC50", "setting": "Insulin receptor", "value": "> 1000", "unit": "nM"}, {"measurement": "IC50", "setting": "[12]", "value": "> 1000", "unit": "nM"}, {"measurement": "IC50", "setting": "[13]", "value": "> 1000", "unit": "nM"}, {"measurement": "IC50", "setting": "[14]", "value": "> 1000", "unit": "nM"}, {"measurement": "IC50", "setting": "[15]", "value": "> 1000", "unit": "nM"}, {"measurement": "IC50", "setting": "[16]", "value": "> 1000", "unit": "nM"}, {"measurement": "IC50", "setting": "[17]", "value": "> 1000", "unit": "nM"}, {"measurement": "IC50", "setting": "[18]", "value": "> 1000", "unit": "nM"}, {"measurement": "IC50", "setting": "[19]", "value": "> 1000", "unit": "nM"}, {"measurement": "IC50", "setting": "[20]", "value": "> 1000", "unit": "nM"}, {"measurement": "IC50", "setting": "[21]", "value": "> 1000", "unit": "nM"}, {"measurement": "IC50", "setting": "[22]", "value": "> 1000", "unit": "nM"}, {"measurement": "IC50", "setting": "[23]", "value": "> 1000", "unit": "nM"}, {"measurement": "Activity", "setting": "BaF3 [24]", "value": "Active"}, {"measurement": "Kdiss", "setting": "[25]", "value": 0.002, "unit": "min⁻¹"}]}
